Experiments:
[1] = target: T1, human GRα protein (Homo sapiens, UniProt P04150); assay: Binding inhibitory assay (displacement of 3H-dexamethasone from the cytoplasm fraction of baculovirus-infected insect cells); settings: 100 nM test compound; 3H-Dex; NSB with 10 μM dexamethasone; read-out: Binding Inhibitory ratio (%) of 100 nM of test compound
T1 construct: made in house; host or cells: insect cells infected with baculovirus; cytoplasm fraction used
T1 sequence (P04150 1-777): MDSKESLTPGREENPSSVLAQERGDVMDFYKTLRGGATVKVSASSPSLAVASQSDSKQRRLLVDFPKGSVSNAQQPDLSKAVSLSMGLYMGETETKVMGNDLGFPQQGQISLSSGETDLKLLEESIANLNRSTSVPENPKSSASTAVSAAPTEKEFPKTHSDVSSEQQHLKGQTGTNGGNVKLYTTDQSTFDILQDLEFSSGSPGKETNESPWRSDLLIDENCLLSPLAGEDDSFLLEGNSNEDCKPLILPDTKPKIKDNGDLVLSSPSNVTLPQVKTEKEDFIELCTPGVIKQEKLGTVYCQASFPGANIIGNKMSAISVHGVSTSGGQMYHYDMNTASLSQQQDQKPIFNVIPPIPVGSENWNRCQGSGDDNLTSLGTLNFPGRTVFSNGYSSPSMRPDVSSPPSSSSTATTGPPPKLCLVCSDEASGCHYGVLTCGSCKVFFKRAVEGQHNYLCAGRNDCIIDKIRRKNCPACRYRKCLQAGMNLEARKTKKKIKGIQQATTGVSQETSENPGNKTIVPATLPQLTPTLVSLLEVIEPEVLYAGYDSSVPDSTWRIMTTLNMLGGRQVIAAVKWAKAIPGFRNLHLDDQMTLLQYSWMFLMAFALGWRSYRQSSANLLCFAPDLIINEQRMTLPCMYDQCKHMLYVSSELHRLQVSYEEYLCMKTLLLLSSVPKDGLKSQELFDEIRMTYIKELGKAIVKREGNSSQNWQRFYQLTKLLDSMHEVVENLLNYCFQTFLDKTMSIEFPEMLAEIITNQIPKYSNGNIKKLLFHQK
Protocol: Insect cells, which had been infected with baculovirus for expressing human GRα protein, were suspended in an approximately equal volume of a binding buffer (10 mM Tris-Cl, 1.5 mM EDTA, 10% glycerol, 5 mM DTT, 20 mM sodium molybdate, pH 7.6). The mixture was rapidly frozen with liquid nitrogen, and then melted at room temperature. This cycle was repeated totally twice in order to break the cell membrane. The mixture was ultracentrifuged under 100,000 g at 4° C. for one hour to give the supernatant, which was the cytoplasm fraction containing human GRα protein.
A polypropylene 96-well plate (manufactured by Costar Corporation, etc.) was placed on ice, and DMSO or a test compound (each 1 μl) was put into each well. A 10 nM ^3H-Dex solution (50 μl; tritiated dexamethasone; manufactured by Amersham) in the binding buffer, and a GR protein solution, i.e., a solution by diluting the above cytoplasm fraction with the binding buffer (50 μl) were added to each well, and the plate was lightly shaken with a plate mixer, and then left to stand at 4° C. for 16 to 20 hours (the final concentration of DMSO: 1%).
A 5% solution of dextran-coated active carbon (manufactured by Sigma) suspended in the binding buffer (50 μl) was put into each well, and the plate was lightly shaken with a plate mixer for 30 seconds. Then, the plate was centrifuged at 2500 rpm at 4° C. for 5 minutes, and the ^3H count in the supernatant (50 μl) was measured by a TopCount (manufactured by Perkin-Elmer Corporation). Each test compound was tested twice.
The binding activity was calculated as follows. The mean ^3H count in the presence of dexamethason (Dex) 10 μM was considered as NSB (non-specific binding), and the binding inhibitory ratio in each well was calculated by the following equation.
Binding Inhibitory Ratio (%)=100×{1−(cpm value of each well−NSB)/(mean cpm value of DMSO-well−NSB)}
(cpm means count per minute)
The mean binding inhibitory ratio of each well was calculated by the above equation to give a binding inhibitory ratio of each test compound.

[2] = tested on: H4-III-E cells; assay: TAT (tyrosine aminotransferase) assay; type: cell-based; settings: for activation at 10 µM / Agonistic activity of 10 μM test compound: 10 μM test compound alone, relative to maximum Dex-induced TAT activity (100%); for activation at 10 µM: read-out: Agonistic activity of 10 μM test compound; for Antagonistic activity of 10 μM test compound: 10 μM test compound together with 0.005 μM dexamethasone, inhibitory ratio against TAT activity increase by Dex
Protocol: H4-III-E cells, which had been continuously cultured in α-MEM medium A (supplemented with 10% inactivated FBS, 50 μM 2-mercapto-ethanol), were suspended in α-MEM medium A or α-MEM medium B (supplemented with 10% inactivated FBS, 50 μM 2-mercapto-ethanol, but without phenol red), and the cell suspension was seeded to a 96-well plate in an amount of 2×10^4 cells/100 μl/well, and the cells were cultured overnight. The supernatant in the medium was removed, and a test compound (100 μl, diluted with α-MEM medium A or α-MEM medium B) was added, and the cells were further cultured overnight. In order to measure the agonistic activity, a test compound was added alone, while in order to measure the antagonistic activity, a test compound was added simultaneously together with 0.005 μM dexamethasone and evaluated the extent of the inhibitory effect of said test compound against the TAT activity-inducing activity by dexamethasone.
The culture supernatant in the plate was removed by suction, and a cell lysate (20 μL; 1% NP-40, 0.2% Triton X-100, 0.25% DOC, 0.1% SDS, 1 mM EGTA, 150 mM NaCl, Tris (pH7.4), Protease inhibitor cocktail [2.5 mg/ml aprotinin, 2.5 mg/ml leupeptin, 2.5 mg/ml soybean trypsin inhibitor]) was added, and further thereto was added a TAT reaction reagent (150 μL; 10 N KOH, 0.125 M KH2PO4, 0.5 M α-ketoglutarate, 5 mM Pyridoxal-5′ phosphate, L-tyrosine), and the mixture was reacted at 37° C. for 15 minutes. Further, a 10N KOH (20 μL) was added thereto, and the mixture was reacted at 37° C. for 30 minutes, and the absorbance at 331 nm was measured by a microplate reader (SPECTRA MAX 250).
From the mean absorbance in the wells to which a test compound was added, the mean absorbance in the wells to which a compound and a TAT reaction solution were not added was subtracted.
Agonistic activity (%)=100×[(absorbance of the drug-treated group)−(absorbance of the group without TAT reaction reagent)]/[(absorbance of Dex-treated group)−(absorbance of the group without TAT reaction reagent)]
On the other hand, the antagonistic activity was calculated as follows.
Antagonistic activity (%)=Inhibitory ratio (%) against TAT activity increase by Dex=100−100×[(absorbance of the drug-treated group)−(absorbance of the group without a drug)]/[(absorbance of Dex-treated group)−(absorbance of the group without a drug)]
With regard to the agonistic activity and the antagonistic activity, the results of 10% or more were expressed as O, while the results of less than 10% were expressed as X.

For O=[N+]([O-])c1ccc2c(C(O)(CN3CCN(S(=O)(=O)c4ccccc4)CC3)C(F)(F)F)cn(Cc3ccccc3)c2c1 (stereo not drawn) [Example 112, 2-(1-Benzyl-6-nitro-1H-indol-3-yl)-1,1,1-trifluoro-3-[4-(phenylsulfonyl)piperazin-1-yl]propan-2-ol], the inhibition at 0.1 µM [1] was 98%, the activation at 10 µM [2] was less than 10% and the “Antagonistic activity of 10 μM test compound” value (“Antagonistic activity” below) [2] was “◯”.

O=[N+]([O-])c1ccc2c(C(O)(CN3CCC(Oc4ccccc4Cl)CC3)C(F)(F)F)cn(Cc3ccccc3)c2c1 (stereo not drawn) [Example 119, 2-(1-Benzyl-6-nitro-1H-indol-3-yl)-3-[4-(2-chlorophenoxy)piperidin-1-yl]-1,1,1-trifluoropropan-2-ol] was tested, and the inhibition at 0.1 µM [1] was 78%, the “Agonistic activity of 10 μM test compound” value [2] was “◯” and the “Antagonistic activity” value [2] was “◯”.

O=[N+]([O-])c1ccc2c(C(O)(CN3CCS(=O)(=O)CC3)C(F)(F)F)cn(Cc3ccccc3)c2c1 (stereo not drawn) [Example 120, 2-(1-Benzyl-6-nitro-1H-indol-3-yl)-3-(1,1-dioxidothiomorpholin-4-yl)-1,1,1-trifluoropropan-2-ol] was tested, and the inhibition at 0.1 µM [1] was 97%, the “Agonistic activity of 10 μM test compound” value [2] was “◯” and the “Antagonistic activity” value [2] was “◯”.

For O=[N+]([O-])c1ccc2c(C(O)(CN3CCC4(CC3)CS(=O)(=O)c3ccccc3O4)C(F)(F)F)cn(Cc3ccccc3)c2c1 (stereo not drawn) [Example 123, 2-(1-Benzyl-6-nitro-1H-indol-3-yl)-3-(4,4-dioxido-1′H-spiro[1,4-benzoxathiine-2,4′-piperidin]-1′-yl)-1,1,1-trifluoropropan-2-ol], the inhibition at 0.1 µM [1] was 72%, the activation at 10 µM [2] was less than 10% and the “Antagonistic activity” value [2] was “◯”.

With O=[N+]([O-])c1ccc2c(C(O)(CN3CCC4(CC3)CNc3ccccc3O4)C(F)(F)F)cn(Cc3ccccc3)c2c1 (stereo not drawn) [Example 128, 2-(1-Benzyl-6-nitro-1H-indol-3-yl)-3-(3,4-dihydro-1′H-spiro[1,4-benzoxazine-2,4′-piperidin]-1′-yl)-1,1,1-trifluoropropan-2-ol] the inhibition at 0.1 µM [1] was 64% and the activation at 10 µM [2] was less than 10%.

COCCNCC(O)(c1cn(Cc2ccccc2)c2cc([N+](=O)[O-])ccc12)C(F)(F)F (stereo not drawn) [Example 131, 2-(1-Benzyl-6-nitro-1H-indol-3-yl)-1,1,1-trifluoro-3-[(2-methoxyethyl)amino]-propan-2-ol] gave an inhibition at 0.1 µM [1] of 84% and an activation at 10 µM [2] of less than 10%.

For O=[N+]([O-])c1ccc2c(C(O)(CNCCOc3ccccc3)C(F)(F)F)cn(Cc3ccccc3)c2c1 (stereo not drawn) [Example 133, 2-(1-Benzyl-6-nitro-1H-indol-3-yl)-1,1,1-trifluoro-3-[(2-phenoxyethyl)amino]-propan-2-ol], the inhibition at 0.1 µM [1] was 51%, the activation at 10 µM [2] was less than 10% and the “Antagonistic activity” value [2] was “◯”.

O=[N+]([O-])c1ccc2c(C(O)(CNCc3ccccc3)C(F)(F)F)cn(Cc3ccccc3)c2c1 (stereo not drawn) [Example 137, 3-(Benzylamino)-2-(1-benzyl-6-nitro-1H-indol-3-yl)-1,1,1-trifluoropropan-2-ol] was tested, and the inhibition at 0.1 µM [1] was 92%, the “Agonistic activity of 10 μM test compound” value [2] was “◯” and the “Antagonistic activity” value [2] was “◯”.

In the case of O=[N+]([O-])c1ccc2c(C(O)(CNCC3CCCO3)C(F)(F)F)cn(Cc3ccccc3)c2c1 (stereo not drawn) [Example 140, 2-(1-Benzyl-6-nitro-1H-indol-3-yl)-1,1,1-trifluoro-3-[(tetrahydrofuran-2-yl-methyl)amino]propan-2-ol], the inhibition at 0.1 µM [1] is reported as 80%, the activation at 10 µM [2] is reported as less than 10% and the “Antagonistic activity” value [2] is reported as “◯”.

In the case of COc1cccc(N2CCN(CC(O)(c3cn(Cc4ccccc4)c4cc([N+](=O)[O-])ccc34)C(F)(F)F)CC2)c1 (stereo not drawn) [Example 144, 2-(1-Benzyl-6-nitro-1H-indol-3-yl)-1,1,1-trifluoro-3-[4-(3-methoxyphenyl)-piperazin-1-yl]propan-2-ol], the inhibition at 0.1 µM [1] is reported as 97%, the “Agonistic activity of 10 μM test compound” value [2] is reported as “◯” and the “Antagonistic activity” value [2] is reported as “◯”.

O=[N+]([O-])c1ccc2c(C(O)(Cn3cccn3)C(F)(F)F)cn(Cc3ccccc3)c2c1 (stereo not drawn) [Example 150, 2-(1-Benzyl-6-nitro-1H-indol-3-yl)-1,1,1-trifluoro-3-(1H-pyrazol-1-yl)propan-2-ol] was tested, and the inhibition at 0.1 µM [1] was 98%, the “Agonistic activity of 10 μM test compound” value [2] was “◯” and the “Antagonistic activity” value [2] was “◯”.

For O=C(N1CCOCC1)C(O)(c1cn(Cc2ccccc2)c2ccccc12)C(F)(F)F (stereo not drawn) [Example 152, 2-(1-Benzyl-1H-indol-3-yl)-1,1,1-trifluoro-3-morpholin-4-yl-3-oxopropan-2-ol], the inhibition at 0.1 µM [1] was 50% and the activation at 10 µM [2] was less than 10%.

For COC(CN1CCC(C(=O)c2ccccc2)CC1)(c1cn(Cc2ccccc2)c2cc([N+](=O)[O-])ccc12)C(F)(F)F (stereo not drawn) [Example 153, {1-[2-(1-Benzyl-6-nitro-1H-indol-3-yl)-3,3,3-trifluoro-2-methoxypropyl]piperidin-4-yl}(phenyl)methanone], the inhibition at 0.1 µM [1] was 91%, the “Agonistic activity of 10 μM test compound” value [2] was “◯” and the “Antagonistic activity” value [2] was “◯”.

For O=[N+]([O-])c1ccc2c(C(O)(Cn3ccnc3)C(F)(F)F)cn(Cc3ccccc3)c2c1 (stereo not drawn) [Example 158, 2-(1-Benzyl-6-nitro-1H-indol-3-yl)-1,1,1-trifluoro-3-(1H-imidazol-1-yl)propan-2-ol], the inhibition at 0.1 µM [1] was 96%, the activation at 10 µM [2] was less than 10% and the “Antagonistic activity” value [2] was “◯”.

O=[N+]([O-])c1ccc2c(C(O)(CN3CCCC(O)C3)C(F)(F)F)cn(Cc3ccccc3)c2c1 (stereo not drawn) [Example 165, 1-[2-(1-Benzyl-6-nitro-1H-indol-3-yl)-3,3,3-trifluoro-2-hydroxypropyl]piperidin-3-ol] was tested, and the inhibition at 0.1 µM [1] was 95%, the “Agonistic activity of 10 μM test compound” value [2] was “◯” and the “Antagonistic activity” value [2] was “◯”.

Reference: patent US20100190768A1, “NOVEL FUSED PYROLE DERIVATIVE” (Dainippon Sumitomo Pharma Co., Ltd., priority 2005, published 2010)
